This passage reports IC50 and Activity results from ChEMBL document CHEMBL1150171, “DNA-damaging agents from Crypteronia paniculata” (J Nat Prod, 2002).

Activity calls are given as the source filed them. The calls are words filed in the database; no cut-off is given here. Some results are limits rather than exact numbers.

As a reminder, the IC50 is the concentration that gives 50% inhibition. Low values mean greater potency, high ones weaker potency.

Experiment [1] deals with Saccharomyces cerevisiae. The experiment in a line: DNA damaging activity against RAD52 transformed Saccharomyces cerevisiae in glucose minimal medium after 41 hrs. The class given is functional, organism-based.
The subject of experiment [2] is Saccharomyces cerevisiae. The experiment in a line: DNA damaging activity against RAD52 transformed Saccharomyces cerevisiae in galactose minimal medium after 41 hrs. The class given is functional, organism-based.
For experiment [3], the system named is Saccharomyces cerevisiae. The experiment in a line: DNA damaging activity against YCp50 transformed Saccharomyces cerevisiae in galactose minimal medium after 41 hrs.
For experiment [4], the system named is Nucleic Acid. The experiment in a line: Induction of DNA cleavage assessed as relaxation of supercoiled plasmid DNA at > 1 mM by cell free assay. The format is nucleic-acid assay.
Experiment [5] concerns Nucleic Acid. The experiment in a line: Induction of DNA cleavage assessed as relaxation of supercoiled plasmid DNA at > 1 mM in presence of Cu2+ by cell free assay. The class given is nucleic-acid assay.

Consider `COc1c(O)cc2c(=O)oc3c(OC)c(O[C@@H]4OC[C@@H](O)[C@H](O)[C@H]4O)cc4c(=O)oc1c2c34`, for which the IC50 is 3.1 µM in experiment [1], > 1000 µM in experiment [2] and 23.1 µM in experiment [3].
For the compound `C[C@@H]1O[C@@H](Oc2c(-c3ccc(O)cc3)oc3cc(O)cc(O)c3c2=O)[C@H](O)[C@H](O)[C@H]1O` [AFZELIN], the IC50 is 7.4 µM in experiment [1], > 1000 µM in experiment [2] and 9.3 µM in experiment [3]. In addition, the outcome in experiment [4] and in experiment [5] was inactive.
For the compound `COc1c(O[C@@H]2O[C@H](CO)[C@@H](O)[C@H](O)[C@H]2O)cc2c(=O)oc3c4c(cc5c(=O)oc1c2c35)OCO4` [NYSSOSIDE], the IC50 turned out to be 1.12 µM in experiment [1], 14.4 µM in experiment [2] and 0.341 µM in experiment [3].
